Results reported in patent US5863917A, “Quinoxaline derivatives useful in therapy” (Pfizer, Inc., priority 1996, dated 1999).

Molecular target: T1, glycine site of the NMDA receptor (Rattus norvegicus, UniProt P35439)
T1 construct: rat brain membranes; from tissue; host or cells: rat brain membranes
Test: Binding affinity for the glycine site of the NMDA receptor (test (a))
Conditions: displacement of a selective glycine site radioligand ([3H]-L-689,560) from rat brain membranes, tris-acetate buffer pH 7.4, 90 minutes
Protocol: (a) Binding affinity for the glycine site of the NMDA receptor
This may be measured by testing a compound's ability to displace a selective glycine site radioligand from rat brain membranes as described in Brit J Pharm (1991), 104, 74. In a variation of this method, thoroughly washed membrane protein is incubated with [^3 H]-L-689,560 for 90 minutes using tris-acetate buffer (pH 7.4). Displacement of the radioligand, using a range of test compound concentrations, is used to derive IC50 (50% inhibitory concentration) values.

IC50, < 100 nM:
Cc1cc2[nH]c(=O)c(=O)[nH]c2c(N(CC(=O)O)S(C)(=O)=O)c1Cl [5 [the (-)-isomer]]
CS(=O)(=O)NCCN(c1c(Cl)c(Cl)cc2[nH]c(=O)c(=O)[nH]c12)S(C)(=O)=O [Example 1, N-(1,4-Dihydro-6,7-dichloro-2,3-dioxoquinoxalin-5-yl)-N-(2-(N'-methanesulphonyl)-aminoethyl)methanesulphonamide]
Cn1cnc(S(=O)(=O)NCCN(c2c(Cl)c(Cl)cc3[nH]c(=O)c(=O)[nH]c23)S(C)(=O)=O)c1 [Example 2, N-(1,4-Dihydro-6,7-dichloro-2,3-dioxoquinoxalin-5-yl)-N-(2-(N'-4-(1H-1-methylimidazolyl)sulphonyl)aminoethyl)methanesulphonamide]
Cc1c(Cl)cc2[nH]c(=O)c(=O)[nH]c2c1N(CC(=O)O)S(C)(=O)=O [Example 3, N-(Carboxymethyl)-N-(1,4-dihydro-7-chloro-6-methyl-2,3-dioxoquinoxalin-5-yl)methanesulphonamide]
Cc1c(Cl)cc2[nH]c(=O)c(=O)[nH]c2c1N(CCNS(=O)(=O)C(F)(F)F)S(C)(=O)=O [Example 4]
Cc1cc2[nH]c(=O)c(=O)[nH]c2c(N(CC(=O)O)S(C)(=O)=O)c1C [Example 7, N-(Carboxymethyl)-N-(1,4dihydro-6,7-dimethyl-2,3-dioxoquinoxalin-5-yl)methanesulphonamide]
COC(=O)CN(c1c(C)c(C)cc2[nH]c(=O)c(=O)[nH]c12)S(C)(=O)=O [Example 10]
CCOC(=O)CN(c1c(C)c(C)cc2[nH]c(=O)c(=O)[nH]c12)S(C)(=O)=O [Example 11]
CCCOC(=O)CN(c1c(C)c(C)cc2[nH]c(=O)c(=O)[nH]c12)S(C)(=O)=O [Example 12]
